Source: ChEMBL document CHEMBL1157112, “Discovery of anti-inflammatory clinical candidate E6201, inspired from resorcylic lactone LL-Z1640-2, III” (Bioorg Med Chem Lett, 2010)

Key:
THP-1 = assay: Antiinflammatory activity in human THP1 cells assessed as inhibition of LPS-induced TNFalpha production by PLAP reporter assay; format: functional, cell-based
[1] = Oral bioavailability in mouse; format: ADME, organism-based; conditions: in vivo
[2] = Toxicity in po dosed BALB/c mouse collagen antibody induced arthritis model assessed as tolerated dose; format: organism-based; conditions: in vivo
Mus musculus [3] = assay: Antiarthritic activity in po dosed BALB/c mouse collagen antibody induced arthritis model assessed as inhibition of increase of arthritis score administered qd for 2 days after collagen antibody challenge measured after 2 days; format: functional; conditions: 48 h
Mus musculus [4] = organism: Mus musculus; assay: Ratio of ED50 for BALB/c mouse collagen antibody induced arthritis model to tolerated dose for BALB/c mouse collagen antibody induced arthritis model; format: functional
[5] = Antiinflammatory activity in human B164 cells assessed as inhibition of LPS-induced Actin production by PLAP reporter assay; format: functional

SMILES	IC50 (THP-1) [nM]	bioavailability [1] [%]	MTD [2] [mg/kg]	ED50 (Mus musculus [3]) [mg/kg]	Ratio (Mus musculus [4])	Activity [5] [µM]
C[C@@H]1/C=C\C(=O)[C@@H](O)[C@@H](O)C/C=C/c2cc(N3CCOCC3)cc(O)c2C(=O)O[C@H]1C	129	48				
C[C@@H]1/C=C\C(=O)[C@@H](O)[C@@H](O)C/C=C/c2cc(N)cc(O)c2C(=O)O[C@H]1C	360	49				
C[C@]12C=CC(=O)C=C1CC[C@@H]1[C@@H]2[C@@H](O)C[C@@]2(C)[C@H]1CC[C@]2(O)C(=O)CO [PREDNISOLONE]			10	3	3	
C[C@@H]1/C=C\C(=O)[C@@H](O)[C@@H](O)C/C=C/c2cc(NCc3ccccc3)cc(O)c2C(=O)O[C@H]1C	1250					
CCn1cnc2c3c(c(O)cc21)C(=O)O[C@@H](C)[C@H](C)/C=C\C(=O)[C@@H](O)[C@@H](O)C/C=C/3	43		< 10	10	1	>10
C[C@@H]1/C=C\C(=O)[C@@H](O)[C@@H](O)C/C=C/c2cc(N(C)C)cc(O)c2C(=O)O[C@H]1C	437	21	60	15	4	
Cc1nc2c3c(c(O)cc2n1C)C(=O)O[C@@H](C)[C@H](C)/C=C\C(=O)[C@@H](O)[C@@H](O)C/C=C/3	108		< 10	10	1	>10
CCCNc1cc(O)c2c(c1)/C=C/C[C@H](O)[C@H](O)C(=O)/C=C\[C@@H](C)[C@H](C)OC2=O	26					
CCNc1cc(O)c2c(c1)/C=C/C[C@H](O)[C@H](O)C(=O)/C=C\[C@@H](C)[C@H](C)OC2=O [E-6201]	56	12	> 30	5	3	
CNc1cc(O)c2c(c1)/C=C/C[C@H](O)[C@H](O)C(=O)/C=C\[C@@H](C)[C@H](C)OC2=O	85	29	> 30	5	6	
CCN(CC)c1cc(O)c2c(c1)/C=C/C[C@H](O)[C@H](O)C(=O)/C=C\[C@@H](C)[C@H](C)OC2=O	2070					
C[C@@H]1/C=C\C(=O)[C@@H](O)[C@@H](O)C/C=C/c2c(c(O)cc3c2ncn3C)C(=O)O[C@H]1C	23	49	< 5	5	1	>10
C[C@@H]1/C=C\C(=O)[C@@H](O)[C@@H](O)C/C=C/c2cc(N3CCNCC3)cc(O)c2C(=O)O[C@H]1C	351					
COc1ccc2c(c1)c(CC(=O)O)c(C)n2C(=O)c1ccc(Cl)cc1 [INDOMETHACIN]			3	1	3	
C[C@@H]1/C=C\C(=O)[C@@H](O)[C@@H](O)C/C=C/c2cc(NCCO)cc(O)c2C(=O)O[C@H]1C	71					
